This note sets out measurements from article PMC6270149, “Bioactive Flavone-C-Glycosides of the African Medicinal Plant Biophytum umbraculum” (Molecules, 2013).

Where two headings read alike, the source gives them in different places. Some results are limits rather than exact numbers.

A short description of one experiment: DPPH radical scavenging. The note with it: triplicates, mean ± SD; for IC50: isolated compounds dissolved in DMSO. How it is done: Pure substances and crude extracts (Soxhlet) were dissolved in DMSO, and the assay was carried out as reported previously. Quercetin (Sigma-Aldrich) was used as positive control.
In general terms: DPPH is a stable violet radical that fades when it is reduced.

For the next experiment, the target named is T1, 15-lipoxygenase (15-LO) (Glycine max, UniProt P08170).
T1 sequence (P08170 1-839): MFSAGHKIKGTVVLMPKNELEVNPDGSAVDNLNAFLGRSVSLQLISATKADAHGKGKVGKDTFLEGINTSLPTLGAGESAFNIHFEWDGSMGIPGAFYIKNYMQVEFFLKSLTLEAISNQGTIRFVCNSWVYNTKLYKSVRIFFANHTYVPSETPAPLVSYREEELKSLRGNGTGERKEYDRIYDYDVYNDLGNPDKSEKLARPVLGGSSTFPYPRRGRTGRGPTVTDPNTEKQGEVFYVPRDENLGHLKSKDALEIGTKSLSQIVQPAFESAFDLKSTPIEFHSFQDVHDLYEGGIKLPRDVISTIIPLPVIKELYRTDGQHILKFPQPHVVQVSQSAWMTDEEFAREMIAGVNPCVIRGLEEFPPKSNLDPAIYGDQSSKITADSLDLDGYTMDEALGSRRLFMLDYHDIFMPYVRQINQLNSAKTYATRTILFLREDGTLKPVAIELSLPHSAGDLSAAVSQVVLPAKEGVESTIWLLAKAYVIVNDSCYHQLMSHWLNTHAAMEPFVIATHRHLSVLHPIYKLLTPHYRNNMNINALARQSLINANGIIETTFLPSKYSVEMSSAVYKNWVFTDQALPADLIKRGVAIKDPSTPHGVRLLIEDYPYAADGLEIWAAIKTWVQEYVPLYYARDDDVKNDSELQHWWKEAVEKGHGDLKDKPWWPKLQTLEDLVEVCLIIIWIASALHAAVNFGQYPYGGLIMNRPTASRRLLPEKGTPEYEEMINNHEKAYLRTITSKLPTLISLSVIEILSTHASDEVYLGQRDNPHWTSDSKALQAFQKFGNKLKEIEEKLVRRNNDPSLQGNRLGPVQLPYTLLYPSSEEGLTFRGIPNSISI
Put plainly: Inhibition of 15-lipoxygenase (15-LO). The note with it: isolated compounds dissolved in DMSO, triplicates, mean ± SD. The format is biochemical. On the procedure:
(§1) Pure substances and crude extracts (Soxhlet) were dissolved in DMSO, and the assay was carried out as reported previously.

A further experiment concerns the target xanthine oxidase (XO) (Bos taurus, UniProt P80457). Put plainly: Inhibition of xanthine oxidase (XO). The format is biochemical. The following applies: isolated compounds dissolved in DMSO; triplicates, mean ± SD. How it is done:
as §1

Setting [1] is: read-out: 15-lipoxygenase (15-LO) inhibition IC50 ± SD.

Chain of xanthine oxidase (XO) (P80457 whole entry): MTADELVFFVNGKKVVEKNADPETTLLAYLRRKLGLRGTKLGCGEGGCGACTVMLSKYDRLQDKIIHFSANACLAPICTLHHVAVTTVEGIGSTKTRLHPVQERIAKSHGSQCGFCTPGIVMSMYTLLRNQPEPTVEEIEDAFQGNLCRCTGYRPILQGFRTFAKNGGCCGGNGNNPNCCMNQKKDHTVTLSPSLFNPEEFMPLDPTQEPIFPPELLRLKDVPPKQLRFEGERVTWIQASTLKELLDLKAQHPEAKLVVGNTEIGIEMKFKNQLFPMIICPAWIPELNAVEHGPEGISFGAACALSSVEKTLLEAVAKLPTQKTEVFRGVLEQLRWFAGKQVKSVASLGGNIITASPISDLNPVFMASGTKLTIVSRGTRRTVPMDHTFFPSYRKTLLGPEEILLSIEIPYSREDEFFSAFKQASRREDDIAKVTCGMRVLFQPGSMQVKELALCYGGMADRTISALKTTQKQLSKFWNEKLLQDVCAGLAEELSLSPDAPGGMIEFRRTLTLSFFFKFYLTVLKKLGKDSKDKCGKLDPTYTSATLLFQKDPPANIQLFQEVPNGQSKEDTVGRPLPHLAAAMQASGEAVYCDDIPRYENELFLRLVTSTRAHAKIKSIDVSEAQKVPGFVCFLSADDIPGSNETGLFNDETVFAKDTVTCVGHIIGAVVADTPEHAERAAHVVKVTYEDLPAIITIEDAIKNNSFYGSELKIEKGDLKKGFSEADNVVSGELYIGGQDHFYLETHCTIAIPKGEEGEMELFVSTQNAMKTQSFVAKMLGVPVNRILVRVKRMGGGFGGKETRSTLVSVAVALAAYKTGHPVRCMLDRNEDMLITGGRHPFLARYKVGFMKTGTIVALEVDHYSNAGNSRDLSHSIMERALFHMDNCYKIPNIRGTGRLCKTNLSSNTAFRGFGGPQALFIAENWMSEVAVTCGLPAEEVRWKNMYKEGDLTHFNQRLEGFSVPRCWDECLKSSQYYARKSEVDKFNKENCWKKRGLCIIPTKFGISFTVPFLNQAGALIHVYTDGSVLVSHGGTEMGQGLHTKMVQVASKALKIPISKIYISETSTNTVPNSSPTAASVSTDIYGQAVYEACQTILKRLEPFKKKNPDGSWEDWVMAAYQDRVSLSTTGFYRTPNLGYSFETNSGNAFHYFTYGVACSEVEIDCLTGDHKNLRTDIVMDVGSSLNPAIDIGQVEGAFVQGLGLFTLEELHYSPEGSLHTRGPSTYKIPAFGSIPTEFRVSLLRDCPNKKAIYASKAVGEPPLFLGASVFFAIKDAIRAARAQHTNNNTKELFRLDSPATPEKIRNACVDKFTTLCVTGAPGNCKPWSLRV

`O=c1c(O)c(-c2ccc(O)c(O)c2)oc2cc(O)cc(O)c12` [Quercetin, reference compound]: in “DPPH radical scavenging” (extracts (Soxhlet) dissolved in DMSO), the “DPPH radical scavenging IC50 ± SD” value stood at 4.4 ± 0.4 µg/mL. The IC50 in the experiment “DPPH radical scavenging” is 13.7 ± 1.3 µM.

For the compound `O=c1cc(-c2ccc(O)c(O)c2)oc2cc(O)c([C@@H]3O[C@H](CO)[C@@H](O)[C@H](O)[C@H]3O)c(O)c12` [Isoorientin (3), isoorientin], the IC50 against 15-lipoxygenase (15-LO) (15-lipoxygenase (15-LO) inhibition IC50 ± SD) turned out to be 86.4 ± 0.5 µM; against xanthine oxidase (XO), 117 ± 13.5 µM; in “DPPH radical scavenging”, 18.1 ± 1.1 µM.

As for `C[C@@H]1O[C@@H](O[C@H]2C(=O)[C@@H](O)[C@H](C)O[C@@H]2c2c(O)cc3oc(-c4ccc(O)cc4)cc(=O)c3c2O)[C@H](O)[C@H](O)[C@H]1O` [Cassiaoccidentalin A (1), cassiaoccidentalin A], the values for the IC50 at 15-lipoxygenase (15-LO) (setting [1]), against xanthine oxidase (XO) and in “DPPH radical scavenging” were 99.9 ± 2.5 µM, 150 ± 7.4 µM and over 167 µM, respectively.

On to `O=c1cc(-c2ccc(O)cc2)oc2cc(O)c([C@@H]3O[C@H](CO)[C@@H](O)[C@H](O)[C@H]3O)c(O)c12` [Isovitexin (2), isovitexin], for which the figures for the IC50 on 15-lipoxygenase (15-LO) (setting [1]), against xanthine oxidase (XO) and in “DPPH radical scavenging” were 107 ± 2.1 µM, over 167 µM and 96 ± 3.6 µM, respectively.

The term IC50 denotes the point on the concentration scale where inhibition reaches its midpoint.
